{
  "source": "patent US20220125746A1",
  "about": "“METHOD OF PREVENTING OR TREATING TREATMENT-INDUCED GASTROINTESTINAL INJURY” (priority 2019, published 2022)",
  "key": {"[1]": {"tested_on": "colon cancer cell lines HCT 116, p53 KO, HT29, SW480, DLD1, PUMA KO", "assay": "CPT-induced apoptosis in colon cancer cell lines (nuclear fragmentation assay)", "assay_type": "cell-based, human", "settings": "CPT 500 nM 24 h, PUMAi 25 uM; p53 WT, null, mutant or PUMA null lines", "method": "(FIG. 10A) Structure of the PUMA inhibitor lead compound (PUMAi). (FIG. 10B) Lysates of 293 cells transfected with individual plasmids for 24 hours were mixed in the indicated combinations. Lysates were incubated with vehicle or PUMA inhibitor (PUMAi, 25 μM) for 15 min before immunoprecipitation with an anti-HA antibody. The HA-bound proteins and input were analyzed by western blotting. (FIG. 10C) Lysates of 293 cells transfected with individual plasmids for 24 h were mixed in the indicated combinations. Lysates were incubated with vehicle or PUMA Inhibitor (PUMAi, 25 μM) for 15 min before immunoprecipitation with an anti-HA antibody. The HA-bound proteins and input were analyzed by western blotting. (FIG. 10D) Indicated colon cancer cell lines were treated with camptothecin (CPT, 500 nM) for 24 h. […] Apoptosis was measured by nuclear fragmentation assay. […] (FIG. 10E) Cells were treated as in D for 24 h and analyzed by western blotting. […]\nAfter treatment, floating and adhering cells were collected and stained in a solution containing 3.7% formaldehyde, 0.5% NP-40, and Hoechst 33258 (10 ug/ml) (Molecular Probes) in PBS. Apoptosis was assessed through microscopic visualization of condensed and fragmented nuclei, as previously described (Yu J. et al., Proc Natl Acad Sci USA (2003) 100:1931-36, incorporated herein by reference). A minimum of 300 cells per treatment were analyzed in triplicate. […]"}, "PUMA/BCL-xL": {"target": "T1, PUMA/BCL-xL (Homo sapiens, UniProt Q9BXH1)", "T1 construct": "expressed in transfected cells; host or cells: HEK293 (human embryonic kidney 293) cells, Lipofectamine 2000; lysates used", "T1 sequence (Q9BXH1 1-193)": "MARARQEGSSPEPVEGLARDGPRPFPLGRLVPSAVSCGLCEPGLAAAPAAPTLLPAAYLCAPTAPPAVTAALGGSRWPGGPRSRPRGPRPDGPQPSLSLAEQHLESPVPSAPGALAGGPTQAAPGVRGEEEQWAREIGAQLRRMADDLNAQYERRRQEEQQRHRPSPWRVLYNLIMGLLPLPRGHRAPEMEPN", "assay": "Immunoprecipitation of HA-PUMA / V5-Bcl-xL from 293 lysates", "assay_type": "binding", "settings": "25 uM, 15 min, anti-HA immunoprecipitation, western blot", "method": "(FIG. 10A) Structure of the PUMA inhibitor lead compound (PUMAi). (FIG. 10B) Lysates of 293 cells transfected with individual plasmids for 24 hours were mixed in the indicated combinations. Lysates were incubated with vehicle or PUMA inhibitor (PUMAi, 25 μM) for 15 min before immunoprecipitation with an anti-HA antibody. The HA-bound proteins and input were analyzed by western blotting. (FIG. 10C) Lysates of 293 cells transfected with individual plasmids for 24 h were mixed in the indicated combinations. Lysates were incubated with vehicle or PUMA Inhibitor (PUMAi, 25 μM) for 15 min before immunoprecipitation with an anti-HA antibody. The HA-bound proteins and input were analyzed by western blotting. (FIG. 10D) Indicated colon cancer cell lines were treated with camptothecin (CPT, 500 nM) for 24 h. HCT 116 cells and PUMA KO HCT 116 cells have WT p53, others have no (KO) or mutant p53. Apoptosis was measured by nuclear fragmentation assay. Values are mean+SEM; n=3 independent experiments. (FIG. 10E) Cells were treated as in D for 24 h and analyzed by western blotting. Representative results are shown, and similar results were obtained in at least three independent experiments. […]"}, "[2]": {"tested_on": "Lewis lung carcinoma (LLC) tumors", "assay": "LLC tumor-bearing mice treated with CPT-11 six times over 2 weeks", "assay_type": "in vivo, mouse", "method": "For tumor experiments, 4 million LLC cells [American Type Culture Collection (ATCC)] were injected into the flanks of WT and Puma KO mice and allowed to grow for 11 days. Mice were then treated with CPT-11 (200 mg/kg) three times per week for 2 weeks. PUMAi (10 mg/kg) or vehicle control was administered by intraperitoneal injection 2 hours before and 20 hours after each dose of CPT-11. Mice were sacrificed 4 hours after the final CPT-11 treatment.\nFor tumor experiments, mice were treated with CPT-11 three times per week for two weeks. Mice receiving PUMAi were treated 2 hours before each dose of CPT-11 and 20 hours after. Mice were sacrificed four hours after the final CPT-11 treatment (FIG. 13A). Tumor volumes were measured with calipers and calculated as volume=(length x width2)/2. Mice were 7-9 weeks old, and roughly equal numbers of male and female animals were used. To account for variations in starting body weights, the values in FIGS. 3 and 4 are expressed as a percentage of the respective mouse weights at the time of the first CPT-11 treatment.\nImmediately after sacrifice, about 10-cm portion of the jejunum was removed and carefully rinsed with ice-cold saline. The tissue was opened longitudinally and tacked to a foam board for fixation overnight in 10% formalin. Tissues were then rolled up into “swiss rolls” and embedded in paraffin. For tumor analysis, flank tumors were removed, measured, and cut into pieces for either formalin fixation or flash freezing in a dry ice/ethanol bath. Tissue sections (5 um) were deparaffinized and rehydrated through graded ethanols. Histological analysis was performed by hematoxylin and eosin (H&E) staining.\nAverage villus height was determined by measuring 40 to 50 villi from different locations of the small intestine, from at least three different animals per group, and reported as means A} SEM. Measurements were made from the top of the crypt to the tip of the villus using 100 Å˜H&E images and SPOT 5.1 Advanced software (Diagnostic Instruments Inc.).\nNeutrophil IF. Sections were prepared as described above. […] Sections were then incubated with AlexaFluor-594 goat antirat secondary antibodies (1:200; A11007; Invitrogen) for 1 hour at room temperature and counterstained with VectaShield plus DAPI."}},
  "note": "Where a name gives a salt, the structure may show the parent alone.",
  "data": [
    {"smiles": "OCCN1CCN(CC(O)COc2ccc3ccccc3c2)CC1", "note": "(centres unmarked) [PUMAi, 1-[4-(2-hydroxyethyl)-1-piperazinyl]-3-(2-naphthyloxy)-2-propanol dihydrochloride]", "values": [
      {"measurement": "camptothecin (CPT)-induced apoptosis in colon cancer cell lines", "setting": "[1]", "result": "did not reduce camptothecin (CPT)-induced apoptosis"},
      {"measurement": "drop in Olfm4+ crypts (RNA ISH)", "setting": "LGR5+ stem cells; after six doses of CPT-11", "result": 49, "unit": "%"},
      {"measurement": "loss and mislocalization of MMP7+ cells and of MMP7+/LGR5+ contact", "setting": "LGR5+ stem cells; repeated CPT-11 treatment", "result": "suppressed"},
      {"measurement": "inhibition of PUMA/BCL-xL interaction", "setting": "PUMA/BCL-xL", "result": "inhibit interaction of PUMA/BCL-xL"},
      {"measurement": "CPT-11-induced weight loss, intestinal damage and lethality", "setting": "[2]; PUMAi 10 mg/kg 2 h before and 20 h after each CPT-11 dose", "result": "highly resistant"},
      {"measurement": "tumor response to CPT-11", "setting": "[2]; PUMAi 10 mg/kg 2 h before and 20 h after each CPT-11 dose, vs vehicle group", "result": "comparable tumor response"},
      {"measurement": "% mice compieting treatment", "setting": "[2]; WT mice, LLC tumor experiments", "result": "100% (5/5)"},
      {"measurement": "grooming and physical activity", "setting": "[2]; daily inspections throughout the study", "result": "improved grooming and physical activity"}
    ]}
  ]
}
